# Laboratory results reported in ChEMBL document CHEMBL5325431, “Synthesis of thieno[3,2-e]pyrrolo[1,2-a]pyrimidine derivatives and their precursors containing 2-aminothiophenes fragments as anticancer agents for therapy of pulmonary metastatic melanoma” (Eur J Med Chem, 2023).
# Activity calls are given as the source filed them. The calls are words filed in the database; no cut-off is given here.
# Legend:
# [1] = tested on: B16-F10; assay: Induction of apoptosis in mouse B16-F10 cells assessed as necrotic cells at 5 uM measured after 48 hrs by Annexin V-FITC/7-AAD staining based flow cytometric analysis relative to control; assay type: functional
# [2] = tested on: B16-F10; assay: Induction of apoptosis in mouse B16-F10 cells assessed as viable cells at 5 uM measured after 48 hrs by Annexin V-FITC/7-AAD staining based flow cytometric analysis relative to control; assay type: functional; settings: read-out: Activity
# [3] = tested on: B16-F10; assay: Cytotoxicity against mouse B16-F10 cells assessed as reduction in cell viability at 0.2 to 1.5 uM incubated for 24 hrs by alamarblue staining based assay relative to control; assay type: functional; settings: dose 0.2-1.5 µM
# [4] = tested on: B16-F10; assay: Cytotoxicity against mouse B16-F10 cells assessed as cell death by measuring increase in red fluorescence at 10 uM by calcein AM/PI staining based confocal laser scanning microscopy analysis; assay type: functional
# [5] = tested on: B16-F10; assay: Cytotoxicity against mouse B16-F10 cells assessed as reduction in cell viability at 5.5 uM incubated for 24 hrs by alamarblue staining based assay relative to control; assay type: functional
# [6] = tested on: B16-F10; assay: Cytotoxicity against mouse B16-F10 cells assessed as inhibition of cell growth incubated for 24 hrs by alamarblue staining based assay; assay type: functional; settings: dose 0.28-55 µM
# [7] = tested on: B16-F10; assay: Cytotoxicity against mouse B16-F10 cells assessed as reduction in cell viability at 8.3 uM incubated for 24 hrs by alamarblue staining based assay relative to control; assay type: functional
# [8] = tested on: B16-F10; assay: Cytotoxicity against mouse B16-F10 cells assessed as cell survival incubated for 24 hrs by alamarblue staining based analysis; assay type: functional; settings: B16-F10, 24 h
# [9] = tested on: MEF; assay: Cytotoxicity against NF2-deficient mouse MEF cells assessed as reduction in cell viability at 0.2 to 55 uM incubated for 24 hrs by alamarblue staining based analysis; assay type: toxicity; settings: dose 0.2-55 µM
# [10] = Toxicity in C57BL/6 mouse assessed as effect on ALT level at 37 mg/kg, ip measured for 22 days; assay type: organism-based; settings: in vivo, 528 h, time 22 day
# [11] = tested on: B16-F10; assay: Antitumor activity against metastatic mouse B16-F10 cells implanted in C57BL/6 mouse assessed as number of lung metastases at 4.6 to 42 mg/kg, ip administered every 3rd day for 22 days measured on day 23 by histological analysis (reference value: 223 +/- 12); assay type: functional; settings: dose 4.6-42 mg/kg, time 23 day
# [12] = tested on: B16-F10; assay: Cytotoxicity against mouse B16-F10 cells assessed as reduction in cell viability at 8.31 uM incubated for 24 hrs by alamarblue staining based assay relative to control; assay type: functional
# [13] = tested on: B16-F10; assay: Cytotoxicity against mouse B16-F10 cells assessed as reduction in cell viability at 1.5 uM incubated for 24 hrs by alamarblue staining based assay relative to control; assay type: functional
Compound,Activity [1] [%],viability at 5 µM [2] [%],Activity [3] [%],Activity [4],Activity [5] [%],Activity [6],Activity [7] [%],IC50 [8] [µM],Activity [9],Activity [10],Activity [11],Activity [12] [%],Activity [13] [%]
CCOC(=O)c1c(N2C(N)=C(C#N)C(=O)/C2=C\C(=O)c2ccc(C)cc2)sc2c1CCCCC2,32.8,35.4,40,Active,20,Dose-Dependent Effect,48,4.8,Non-Toxic,Non-Toxic,29,,
CCOC(=O)c1c(NC(=C\C(=O)c2ccc(OC)cc2)/C([O-])=C(\C#N)C(N)=O)sc2c1CCCC2.[K+],48.5,5.8,,Active,,Dose-Dependent Effect,,2.41,Non-Toxic,Non-Toxic,~10,20,~80
COc1ccc(C(=O)/C=C2\C(=O)C(C#N)=C3NC(=O)c4c(sc5c4CCCCC5)N32)cc1,3.2,63.2,90,Active,20,Dose-Dependent Effect,,6.2,Non-Toxic,Non-Toxic,55,,
